The record followed here is article PMC6599972, “Inhibition of host NOX1 blocks tumor growth and enhances checkpoint inhibitor–based immunotherapy” (Life Science Alliance, 2019).

Experiment [1] concerns the target T1, NOX1 (Homo sapiens, UniProt Q9Y5S8).
T1 construct: membranes prepared from cells specifically overexpressing the human NOX isoform
T1 sequence (Q9Y5S8 1-564): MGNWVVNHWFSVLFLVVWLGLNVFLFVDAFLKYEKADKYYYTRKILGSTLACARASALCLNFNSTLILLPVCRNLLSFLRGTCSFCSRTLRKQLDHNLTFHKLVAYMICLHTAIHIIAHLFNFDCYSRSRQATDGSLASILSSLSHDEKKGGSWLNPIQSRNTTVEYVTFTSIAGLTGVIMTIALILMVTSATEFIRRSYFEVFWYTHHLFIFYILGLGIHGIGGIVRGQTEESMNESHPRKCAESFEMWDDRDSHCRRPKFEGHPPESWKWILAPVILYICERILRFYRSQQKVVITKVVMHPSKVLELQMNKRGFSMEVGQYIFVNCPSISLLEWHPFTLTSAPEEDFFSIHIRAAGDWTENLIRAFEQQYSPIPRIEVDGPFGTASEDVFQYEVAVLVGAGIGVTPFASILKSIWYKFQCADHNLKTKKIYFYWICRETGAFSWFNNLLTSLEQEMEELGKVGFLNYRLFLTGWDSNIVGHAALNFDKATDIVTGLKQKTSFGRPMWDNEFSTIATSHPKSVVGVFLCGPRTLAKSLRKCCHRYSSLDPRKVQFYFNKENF
As to the kind of experiment: Amplex Red/HRP ROS production assay on membranes of NOX1-overexpressing cells, concentration-response. Type of experiment: biochemical.

In experiment [2] the target is T2, NOX4 (Homo sapiens, UniProt Q9NPH5).
T2 construct: membranes prepared from cells specifically overexpressing the human NOX isoform
T2 sequence (Q9NPH5 1-578): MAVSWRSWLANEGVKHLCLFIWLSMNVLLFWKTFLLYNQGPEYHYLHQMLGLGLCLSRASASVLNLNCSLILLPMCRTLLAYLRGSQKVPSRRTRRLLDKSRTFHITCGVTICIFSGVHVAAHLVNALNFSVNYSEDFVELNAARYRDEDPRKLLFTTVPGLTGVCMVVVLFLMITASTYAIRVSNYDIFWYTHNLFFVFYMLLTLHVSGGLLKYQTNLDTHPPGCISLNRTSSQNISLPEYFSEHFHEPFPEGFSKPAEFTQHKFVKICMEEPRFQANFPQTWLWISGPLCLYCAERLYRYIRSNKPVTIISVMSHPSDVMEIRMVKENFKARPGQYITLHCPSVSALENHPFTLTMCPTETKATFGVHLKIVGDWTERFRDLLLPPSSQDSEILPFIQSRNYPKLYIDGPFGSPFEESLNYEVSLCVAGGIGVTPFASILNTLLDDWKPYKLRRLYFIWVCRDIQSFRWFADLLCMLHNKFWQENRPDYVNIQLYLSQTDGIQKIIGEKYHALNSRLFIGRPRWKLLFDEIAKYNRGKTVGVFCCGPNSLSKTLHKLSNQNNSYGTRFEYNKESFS
As to the kind of experiment: Amplex Red/HRP ROS production assay on membranes of NOX4-overexpressing cells, concentration-response. Type of experiment: biochemical.

One may read the Ki as the equilibrium dissociation constant of an inhibitor or competing ligand from its target. A higher Ki goes with weaker binding.

With GKT771, the Ki in experiment [1] turned out to be 60 ± 6 nM; in experiment [2], 4000 nM.
